Laboratory results taken from PMC3481155, “AhR activation underlies the CYP1A autoinduction by A-998679 in rats” (Frontiers in Genetics, 2012).

What was measured:
[1] = 5-day rat exploratory toxicology study (liver weight, clinical chemistry, histopathology); format: in vivo; settings: 5 days
Method: All animal experiments were conducted in accordance with the Guiding Principles in the Use of Animals in Toxicology (http://www.toxicology.org/ai/air/air6.asp) and were approved by Abbott's Institutional Animal Care and Use Committee (IACUC). Male Sprague-Dawley rats [Crl:CD®(SD)IGS BR], weighing ~250 g at study initiation were obtained from Charles River Laboratories, Inc. (Wilmington, MA). Rats were housed singly in ventilated, stainless steel, wire-bottom hanging cages and fed non-certified Rodent Chow (Harlan Labs, Madison, WI), and water ad libitum and acclimated for at least 5 days after arrival. Rats were randomly assigned to various treatment groups (3 rats/group) and were dosed once daily by oral gavage with vehicle (0.2% hydroxypropylmethylcellulose at a dose volume of 10 ml/kg) or with 30, 100, or 200 mg/kg of A-998679. All rats were fasted overnight after their last dose, weighed and sacrificed under isoflurane anesthesia. For histopathological evaluation, liver, heart, kidney, spleen, bone (sternum) with marrow, gastrointestinal tract (duodenum with pancreas, jejunum, ileum, cecum, and colon), thymus, and lung were fixed in formalin, routinely processed, and embedded in paraffin. Paraffin sections (4 μm) were stained with hematoxylin and eosin. Liver and small intestine (jejunum) were also flash frozen in liquid nitrogen and stored at −80°C until processing for gene expression profiling. Serum clinical chemistry parameters were quantified using an Aeroset Clinical Chemistry Analyzer (Abbott Laboratories, Abbott Park, IL) and included alanine amino transferase (ALT), aspartate amino transferase (AST), gamma glutamyltransferase (GGT), and alkaline phosphatase (ALP) activities.

[2] = biological target: T1, aryl hydrocarbon receptor (AhR) (Homo sapiens, UniProt P35869); assay: AhR luciferase reporter assay in HepG2 cells; format: cell-based
T1 construct: endogenous in cells; host or cells: HepG2
T1 sequence (P35869 11-848): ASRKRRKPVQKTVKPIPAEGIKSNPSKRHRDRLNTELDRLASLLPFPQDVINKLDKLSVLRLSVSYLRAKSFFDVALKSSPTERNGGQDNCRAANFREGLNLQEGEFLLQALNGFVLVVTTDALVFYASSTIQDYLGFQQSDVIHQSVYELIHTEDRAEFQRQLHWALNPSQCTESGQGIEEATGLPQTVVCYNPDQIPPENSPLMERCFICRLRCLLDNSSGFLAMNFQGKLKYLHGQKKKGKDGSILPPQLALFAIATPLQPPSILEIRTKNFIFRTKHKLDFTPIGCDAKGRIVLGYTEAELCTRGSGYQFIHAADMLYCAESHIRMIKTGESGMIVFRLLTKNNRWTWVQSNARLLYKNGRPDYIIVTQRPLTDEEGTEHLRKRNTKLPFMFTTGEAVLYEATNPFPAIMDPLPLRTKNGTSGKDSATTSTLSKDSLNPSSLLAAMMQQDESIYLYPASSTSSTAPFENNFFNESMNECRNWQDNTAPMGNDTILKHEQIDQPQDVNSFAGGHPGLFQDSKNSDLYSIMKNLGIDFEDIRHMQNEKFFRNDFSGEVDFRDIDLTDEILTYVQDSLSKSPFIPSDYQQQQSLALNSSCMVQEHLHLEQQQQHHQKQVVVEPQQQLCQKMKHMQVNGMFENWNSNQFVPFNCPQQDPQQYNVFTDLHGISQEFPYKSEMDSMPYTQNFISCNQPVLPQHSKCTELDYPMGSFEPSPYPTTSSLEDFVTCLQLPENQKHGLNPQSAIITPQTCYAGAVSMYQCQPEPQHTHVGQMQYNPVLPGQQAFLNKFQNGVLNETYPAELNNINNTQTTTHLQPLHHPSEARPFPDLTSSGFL
Method: HepG2 cells were transiently transfected overnight with the construct (1200 bp portion of the human CYP1A1 promoter region containing 2 copies of the functional consensus sequence for the DRE in luc2P luciferase vector (SwitchGear Genomics cat# 114555, Menlo Park, CA) using lipofectin (Invitrogen Life Technologies) at 500 ng construct per million cells. Following transfection, the cells were replated in a 96-well format and dosed for 24 h with 0.1% (v/v) DMSO vehicle, 3-MC at 0.05, 0.1, 0.5, 1, 5, 10 μM, and A-998679 at 1.5625, 3.125, 6.25, 12.5, 25, and 50 μM. Luminescence signal was generated using the Dual-Luciferase Reporter Assay System (Promega, Madison, WI) and detected with a Tecan Genios Pro reader (Männedorf, Switzerland).

[3] = biological target: T2, rat Cyp 3A2 (Rattus norvegicus, UniProt P05183); assay: Recombinant rat Cyp phenotype profiling, 3A2; format: in vitro ADME; settings: 60 min
T2 construct: purchased BD Gentest; host or cells: baculovirus infected insect cells
T2 sequence (P05183 whole entry): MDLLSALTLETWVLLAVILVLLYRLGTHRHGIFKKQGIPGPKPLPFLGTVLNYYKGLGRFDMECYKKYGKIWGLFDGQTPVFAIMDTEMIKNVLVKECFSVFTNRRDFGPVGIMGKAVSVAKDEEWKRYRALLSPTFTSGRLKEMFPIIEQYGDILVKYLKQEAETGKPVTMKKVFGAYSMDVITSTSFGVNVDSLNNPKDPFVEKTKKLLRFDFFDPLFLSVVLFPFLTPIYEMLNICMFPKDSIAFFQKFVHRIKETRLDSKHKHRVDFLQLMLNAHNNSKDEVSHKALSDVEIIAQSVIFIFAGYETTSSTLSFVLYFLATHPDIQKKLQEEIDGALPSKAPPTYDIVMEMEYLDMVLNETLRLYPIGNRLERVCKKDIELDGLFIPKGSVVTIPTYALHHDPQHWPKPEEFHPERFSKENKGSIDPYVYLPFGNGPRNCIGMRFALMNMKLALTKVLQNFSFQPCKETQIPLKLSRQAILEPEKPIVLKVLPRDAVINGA
Method: Identification of the drug metabolizing enzymes (DMEs) of A-998679 was studied in cDNA expressed recombinant enzymes prepared from baculovirus infected insect cells over-expressing rat Cyp isoforms (BD Gentest, Woburn, MA) as listed in Table 2. Incubations were conducted in duplicate using Supersomes. The incubation mixture contained 100 pmol/ml of enzymes, except for Cyp1a1 (200 pmol/ml), 0.1 or 0.21 μM of [^3H]A-998679 in 100 mM phosphate buffer (pH 7.4). Reactions were initiated with the addition of NADPH at a final concentration of 1 mM and incubated at 37°C for 60 min. At the end of the incubation period, the incubations were terminated by the addition of acetonitrile/ethanol (50/50, v/v) solution. Insect control samples lacking expressed enzyme were used as negative control. The degree of metabolism of A-998679 was assessed by percent of parent remaining using the radio-HPLC method described below.
Radiolabeled components from the above assays were profiled following separation by HPLC with on line radioflow detector. The system consisted of an Agilent 1100 Series quaternary pump and autosampler connected to a Packard 500TR flow scintillation detector. The data were processed using the Radiomatic™ Flo-one® software v3.65. The scintillant (Perkin Elmer FLO-SCINT™ III) flow was maintained at 3 ml/min. […]

N#Cc1cccc(-c2noc(-c3cccnc3)n2)c1 [A-998679, 3-(5-pyridin-3-yl-1,2,4-oxadiazol-3-yl) benzonitrile]
increase in relative liver weight ([1]; 200 mg/kg/day): ~ 25%
clinical chemistry parameters ([1]; 30-200 mg/kg/day): No significant changes
histopathology ([1]; 30-200 mg/kg/day): No significant changes
change in relative liver weight ([1]; lower doses (30 and 100 mg/kg/day)): no change
lowest level activating the DRE ([2]; gene reporter assay): ~ 6 μM
EC50 ([2]; luciferase reporter with human DRE construct, 24 h, read-out: EC50, activation of AhR signaling): 16.2 µM
maximal increase over vehicle ([2]; luciferase reporter, 24 h): 56 fold
% parent remaining ([3]; recombinant rat Cyp 3A2, 0.10 μM): 100%
% parent remaining ([3]; recombinant rat Cyp 3A2, 0.21 μM): 94.2%
